# From the supplement of paper PMC11208160
# Test: recombinant barcode read abundance after kanamycin selection (control-corrected) (log10(CPM+1)); higher = more efficient recombination; sequences stand for … in AGTGCAGAGAAAATCGGCCAGTTTTCTCTGCCTGCAGTCCGCATGCCGT…AGATTTATGCAGCGGACTGCCTTTCTCCCAAAGTGATAAACCGGACAGTATCATGGACCGGTTTTCCCGGTAATCCGTATTTGCAAGGTTGGTTTCACT; site = the 11-nt target
# Outline: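 Two replicates per condition were plated: chloramphenicol/ampicillin LB agar for the control, and chloramphenicol/ampicillin/kanamycin with 0.1 mM IPTG for selection. The pooled E. coli screen behind them paired targets with IS621 bridge RNA target-binding loops. Recombination efficiency is expressed from averaged, control-corrected barcode counts per million at recombinant junctions, as log10(CPM+1).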
# 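Note: IS621 recombinase and bridge RNA in Escherichia coli cells.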
row,Sequence,recombinant barcode read abundance (log10)
1,TATTCTACTTGGGTTCTAACCTGTTGCGT (site TATTCTACTTC),0.0549
2,TATTGGACTTGGGTTCTAACCTGTTGCAC (site TATTGGACTAT),0.0463
3,TATTGGACTTGGGTTCTAACCTGTTGCAC (site TATTGGACTCT),0.122
4,TATTGGACTTGGGTTCTAACCTGTTGCAC (site TATTGGACTGT),0.0567
5,TATTGGACTTGGGTTCTAACCTGTTGCAC (site TATTGGACTTT),0.0673
6,TATTGGACTTGGGTTCTAACCTGTTGCAT (site TATTGGACTAT),0.421
7,TATTGGACTTGGGTTCTAACCTGTTGCAT (site TATTGGACTCT),0.153
8,TATTGGACTTGGGTTCTAACCTGTTGCAT (site TATTGGACTGT),0.155
9,TATTGGACTTGGGTTCTAACCTGTTGCAT (site TATTGGACTTT),0.101
10,TATTGGACTTGGGTTCTAACCTGTTGCTT (site AATTGGACTAA),0.0764
11,TATTGGACTTGGGTTCTAACCTGTTGCTT (site CATTGGACTAA),0.0882
12,TATTGGACTTGGGTTCTAACCTGTTGCTT (site GATTGGACTAA),0.0435
13,TATTGGACTTGGGTTCTAACCTGTTGCTT (site TATTGGACTAA),0.141
14,TATTTGTCTTGGGTTCTAACCTGTTGCCA (site CACTTGTCTTG),0.023
15,TATTTGTCTTGGGTTCTAACCTGTTGCCA (site TATTTGTCTTG),0.156
16,TCAAGCCCTTGGGTTCTAACCTGTTGCAG (site CAGTCTACTAC),0.011
17,TCAAGCCCTTGGGTTCTAACCTGTTGCAG (site TCAAGCCCTCT),0.927
18,TCAAGGCCTTGGGTTCTAACCTGTTGCCT (site ACAAGGCCTAG),0.147
19,TCAAGGCCTTGGGTTCTAACCTGTTGCCT (site CCAAGGCCTAG),0.084
20,TCAAGGCCTTGGGTTCTAACCTGTTGCCT (site GCAAGGCCTAG),0.106
21,TCAAGGCCTTGGGTTCTAACCTGTTGCCT (site TCAAGGCCTAG),0.32
22,TCAATCCCTTGGGTTCTAACCTGTTGCCT (site TCAATCCCTAG),0.326

row,Sequence,recombinant barcode read abundance (log10)
1,TCAATCCCTTGGGTTCTAACCTGTTGCCT (site TCCATCCCTAG),0.048
2,TCAATCCCTTGGGTTCTAACCTGTTGCCT (site TCGATCCCTAG),0.173
3,TCAATCCCTTGGGTTCTAACCTGTTGCCT (site TCTATCCCTAG),0.0124
4,TCACACACTTGGGTTCTAACCTGTTGCCT (site CTCAGACCTCA),0.0319
5,TCACACACTTGGGTTCTAACCTGTTGCCT (site TCACACACTAG),1.06
6,TCACCGCCTTGGGTTCTAACCTGTTGCCT (site ACACCGCCTAG),0.75
7,TCACCGCCTTGGGTTCTAACCTGTTGCCT (site CCACCGCCTAG),0.141
8,TCACCGCCTTGGGTTCTAACCTGTTGCCT (site GCACCGCCTAG),0.0186
9,TCACCGCCTTGGGTTCTAACCTGTTGCCT (site TCACCGCCTAG),0.172
10,TCACCTGCTTGGGTTCTAACCTGTTGCCT (site TCACATGCTAG),0.0199
11,TCACCTGCTTGGGTTCTAACCTGTTGCCT (site TCACCTGCTAG),0.961
12,TCACCTGCTTGGGTTCTAACCTGTTGCCT (site TCACGTGCTAG),0.192
13,TCACCTGCTTGGGTTCTAACCTGTTGCCT (site TCACTTGCTAG),0.0607
14,TCACGTCCTTGGGTTCTAACCTGTTGCGG (site TCACGTCCTCC),1.3
15,TCACGTCCTTGGGTTCTAACCTGTTGCGG (site TTACGTCCTCC),0.0483
16,TCACGTGCTTGGGTTCTAACCTGTTGCCT (site TCACATGCTAG),0.0819
17,TCACGTGCTTGGGTTCTAACCTGTTGCCT (site TCACCTGCTAG),0.105
18,TCACGTGCTTGGGTTCTAACCTGTTGCCT (site TCACGTGCTAG),0.563
19,TCACGTGCTTGGGTTCTAACCTGTTGCCT (site TCACTTGCTAG),0.121
20,TCACTCTCTTGGGTTCTAACCTGTTGCCT (site TAACTCTCTAG),0.111
21,TCACTCTCTTGGGTTCTAACCTGTTGCCT (site TCACTCTCTAG),1.22
22,TCACTCTCTTGGGTTCTAACCTGTTGCCT (site TGACTCTCTAG),0.0273

row,Sequence,recombinant barcode read abundance (log10)
1,TCACTCTCTTGGGTTCTAACCTGTTGCCT (site TTACTCTCTAG),0.062
2,TCACTTCCTTGGGTTCTAACCTGTTGCCT (site TCACCTTCTAG),0.121
3,TCACTTCCTTGGGTTCTAACCTGTTGCCT (site TCACTTCCTAG),0.0238
4,TCACTTGCTTGGGTTCTAACCTGTTGCCT (site TCACATGCTAG),0.0105
5,TCACTTGCTTGGGTTCTAACCTGTTGCCT (site TCACCTGCTAG),0.0436
6,TCACTTGCTTGGGTTCTAACCTGTTGCCT (site TCACGTGCTAG),0.177
7,TCACTTGCTTGGGTTCTAACCTGTTGCCT (site TCACTTGCTAG),0.215
8,TCAGAAGCTTGGGTTCTAACCTGTTGCCG (site ATGAGGCCTTA),0.022
9,TCAGAAGCTTGGGTTCTAACCTGTTGCCG (site TCAGAAGCTCG),0.689
10,TCAGCCTCTTGGGTTCTAACCTGTTGCCT (site CTGTGTCCTCC),0.11
11,TCAGCCTCTTGGGTTCTAACCTGTTGCCT (site TCAGCCTCTAG),1.72
12,TCAGCGACTTGGGTTCTAACCTGTTGCCT (site TCAGCGACTAG),0.481
13,TCAGCGACTTGGGTTCTAACCTGTTGCCT (site TCCGCGACTAG),0.139
14,TCAGCGACTTGGGTTCTAACCTGTTGCCT (site TCGGCGACTAG),0.27
15,TCAGCGACTTGGGTTCTAACCTGTTGCCT (site TCTGCGACTAG),0.39
16,TCAGGAGCTTGGGTTCTAACCTGTTGCTA (site CATATGACTAG),0.288
17,TCAGGAGCTTGGGTTCTAACCTGTTGCTA (site TCAGGAGCTTA),0.325
18,TCATAGCCTTGGGTTCTAACCTGTTGCTG (site TCAAAGCCTCA),0.131
19,TCATAGCCTTGGGTTCTAACCTGTTGCTG (site TCACAGCCTCA),0.0283
20,TCATAGCCTTGGGTTCTAACCTGTTGCTG (site TCAGAGCCTCA),0.087
21,TCATAGCCTTGGGTTCTAACCTGTTGCTG (site TCATAGCCTCA),0.62
22,TCATATTCTTGGGTTCTAACCTGTTGCCT (site TCAAATTCTAG),0.17

row,Sequence,recombinant barcode read abundance (log10)
1,TCATATTCTTGGGTTCTAACCTGTTGCCT (site TCACATTCTAG),0.0604
2,TCATATTCTTGGGTTCTAACCTGTTGCCT (site TCAGATTCTAG),0.069
3,TCATATTCTTGGGTTCTAACCTGTTGCCT (site TCATATTCTAG),0.0782
4,TCATGAACTTGGGTTCTAACCTGTTGCCT (site TCATGAACTAG),0.256
5,TCATGAACTTGGGTTCTAACCTGTTGCCT (site TTATGATCTAG),0.0186
6,TCATTAGCTTGGGTTCTAACCTGTTGCCG (site GGGCATCCTAT),0.0935
7,TCATTAGCTTGGGTTCTAACCTGTTGCCG (site TCATTAGCTCG),0.315
8,TCATTCGCTTGGGTTCTAACCTGTTGCCT (site TCATTCGCTAG),0.857
9,TCATTCGCTTGGGTTCTAACCTGTTGCCT (site TCCTTAGCTAG),0.186
10,TCCAAACCTTGGGTTCTAACCTGTTGCGG (site TCCAAACCTCC),2.04
11,TCCAAACCTTGGGTTCTAACCTGTTGCGG (site TCCAACACTCC),0.00629
12,TCCAGTCCTTGGGTTCTAACCTGTTGCTA (site TCCAGTCCTTA),0.688
13,TCCAGTCCTTGGGTTCTAACCTGTTGCTA (site TCCATCCCTTA),0.0632
14,TCCCAAACTTGGGTTCTAACCTGTTGCAC (site CTAACTGCTAC),0.0667
15,TCCCAAACTTGGGTTCTAACCTGTTGCAC (site TCCCAAACTGT),0.657
16,TCCCACACTTGGGTTCTAACCTGTTGCCA (site ACCCACACTCG),0.129
17,TCCCACACTTGGGTTCTAACCTGTTGCCA (site TCCCACACTTG),1.33
18,TCCCAGCCTTGGGTTCTAACCTGTTGCTG (site TCCCAGCCTCA),0.0849
19,TCCCAGCCTTGGGTTCTAACCTGTTGCTG (site TCCCATCCTAA),0.274
20,TCCCATCCTTGGGTTCTAACCTGTTGCTT (site TCCCAGCCTCA),0.524
